Experimental data from article PMC12802172, “Mechanistic insights into dual-active liver and blood-stage antiplasmodials” (mBio, 2025).
Like-named read-outs stand apart in the source and are kept apart here.

Tests used:
[1] = target: T1, P. falciparum cytoplasmic isoleucyl-tRNA synthetase (PfcIRS) (Plasmodium falciparum, UniProt Q8IDZ9); assay: AMP-Glo enzymatic assay with recombinant PfcIRS; type: biochemical
T1 construct: gene PF3D7_1332900; full-length PfcIRS (1-1273), C-terminal TEV-cleavable His10-FLAG tag removed, Sf9 expressed
T1 sequence (Q8IDZ9 entry or part of it): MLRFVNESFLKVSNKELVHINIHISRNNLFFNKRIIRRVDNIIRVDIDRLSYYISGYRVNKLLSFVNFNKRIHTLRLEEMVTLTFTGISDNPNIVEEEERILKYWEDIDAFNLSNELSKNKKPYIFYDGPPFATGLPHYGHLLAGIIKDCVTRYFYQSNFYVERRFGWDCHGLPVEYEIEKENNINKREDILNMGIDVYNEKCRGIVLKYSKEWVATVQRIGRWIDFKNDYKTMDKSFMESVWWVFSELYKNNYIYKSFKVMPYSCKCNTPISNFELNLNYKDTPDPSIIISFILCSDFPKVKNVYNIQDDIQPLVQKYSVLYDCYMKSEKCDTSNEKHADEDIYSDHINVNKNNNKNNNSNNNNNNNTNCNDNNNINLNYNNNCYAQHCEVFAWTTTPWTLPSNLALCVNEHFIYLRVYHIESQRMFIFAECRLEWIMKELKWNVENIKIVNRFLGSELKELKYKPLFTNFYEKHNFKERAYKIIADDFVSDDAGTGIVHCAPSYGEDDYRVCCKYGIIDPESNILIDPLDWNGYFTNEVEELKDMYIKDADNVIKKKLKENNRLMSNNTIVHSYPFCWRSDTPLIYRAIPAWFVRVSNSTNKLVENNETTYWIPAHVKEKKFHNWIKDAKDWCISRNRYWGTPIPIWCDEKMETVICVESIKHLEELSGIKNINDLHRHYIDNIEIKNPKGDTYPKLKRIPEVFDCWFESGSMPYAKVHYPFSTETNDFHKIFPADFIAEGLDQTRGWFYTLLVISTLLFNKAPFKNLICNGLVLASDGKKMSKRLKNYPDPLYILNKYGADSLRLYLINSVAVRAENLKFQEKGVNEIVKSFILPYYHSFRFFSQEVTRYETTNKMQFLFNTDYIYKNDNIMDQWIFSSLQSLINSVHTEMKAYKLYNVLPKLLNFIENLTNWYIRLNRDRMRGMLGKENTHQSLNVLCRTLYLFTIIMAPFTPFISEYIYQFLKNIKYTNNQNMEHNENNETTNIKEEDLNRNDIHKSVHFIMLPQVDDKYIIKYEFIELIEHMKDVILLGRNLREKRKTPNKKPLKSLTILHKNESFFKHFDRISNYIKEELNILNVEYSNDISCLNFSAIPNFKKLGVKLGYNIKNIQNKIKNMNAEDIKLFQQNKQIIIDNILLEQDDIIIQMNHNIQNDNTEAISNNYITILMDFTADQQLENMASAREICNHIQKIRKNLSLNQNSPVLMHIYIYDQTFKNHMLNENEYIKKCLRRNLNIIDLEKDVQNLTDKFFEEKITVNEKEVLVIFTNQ

P. falciparum 3D7 = test system: T2, P. falciparum 3D7; assay: microbe, parasite or virus in culture; set-up: species or system P. falciparum in human erythrocytes; asexual blood-stage growth inhibition, synchronized ring-stage parasites, SYBR Green I fluorescence; conditions: Plasmodium falciparum, 3D7, Erythrocyte, 72 h; initial laboratory strain experiment (Table S1); read-out: P. falciparum asexual blood stage activity (IC50 uM) / 3D7
T2 construct: 3D7
Description: (§1) Compound dose-response assays were performed in flat-bottom 96-well plates. Tightly synchronized ring-stage parasites were adjusted to 1% parasitemia at 1% hematocrit and exposed to a twofold serial dilution of the compounds plated using a Tecan D300e digital dispenser. As controls, the assay plate included untreated parasites and parasites treated with 700 nM DHA only. After 72 h of incubation, parasite growth was measured by lysing the cells with a 2 × lysis buffer containing 10 mM Tris-HCl, 5 mM EDTA, 0.1% (wt/vol) saponin, and 1% (vol/vol) Triton X-100, supplemented with 2 × SYBR Green I (Molecular Probes). Fluorescence was recorded using a FluorStar Omega v5.11 plate reader. IC50 values were determined using GraphPad Prism v9, and statistical significance was assessed with a two-sided Mann-Whitney U test. Each assay was conducted in technical duplicate, with a minimum of three biological replicates, as described in the figure legends. P. falciparum parasites were cultured with fresh human erythrocytes at 3% hematocrit in RPMI 1640 medium (Gibco), supplemented with 0.5% Albumax II (Gibco), 25 mM HEPES (Sigma), 1× GlutaMAX (Gibco), and 25 μg/mL gentamicin (Gibco). The following parasite strains were used: 3D7, Dd2 (MR4, MRA-156, T. Wellems), GB4 (MR4, MRA-925, T. Wellems), UG659 (P. Rosenthal), Cam/PH0212C (R. Fairhurst), and Cam3.II/ PH0306-C (R. Fairhurst). The cultures were maintained under a controlled tri-gas atmosphere of 1% O2, 3% CO2, and 96% N2. Human erythrocytes were ethically sourced from healthy, anonymous donors through the Scottish National Blood Transfusion Service (SNBTS) or the National Health Services Blood and Transplant (NHSBT). The use of red blood cells was with approval from the University of Dundee Schools of Medicine and Life Sciences Research Ethics Committee, and the NHS Cambridgeshire Research Ethics Committee and Wellcome Sanger Institute Human Materials and Data Management Committee. Half-maximal growth inhibition concentrations were determined for the nine query compounds against chloroquine-sensitive (3D7) and multidrug-resistant (Dd2) parasites (Fig. 1B; Table S1). Compounds were further assessed against a panel of geographically diverse parasite strains, including two multidrug-resistant Cambodian isolates (resistant to artemisinin, chloroquine, and pyrimethamine) and strains from Uganda (UG659) and Ghana (GB4). […] However, a reduction in sensitivity to TCMDC-134122 was noted across all strains when compared to Dd2.

[2] = test system: T3, Plasmodium falciparum GB4; assay: microbe, parasite or virus in culture; set-up: species or system P. falciparum in human erythrocytes; asexual blood-stage growth inhibition, synchronized ring-stage parasites, SYBR Green I fluorescence; conditions: Erythrocyte, 72 h, read-out: P. falciparum asexual blood stage activity (IC50 uM) / GB4 / IC50
T3 construct: GB4
Description: as §1

P. falciparum Dd2 = test system: T4, P. falciparum Dd2; assay: microbe, parasite or virus in culture; set-up: species or system P. falciparum in human erythrocytes; asexual blood-stage growth inhibition, synchronized ring-stage parasites, SYBR Green I fluorescence; conditions: Plasmodium falciparum, DD2, Erythrocyte, 72 h
T4 construct: Dd2
Description: as §1

[3] = test system: T5, Plasmodium falciparum Cam3.II; assay: microbe, parasite or virus in culture; set-up: species or system P. falciparum in human erythrocytes; asexual blood-stage growth inhibition, synchronized ring-stage parasites, SYBR Green I fluorescence; conditions: Erythrocyte, 72 h, read-out: P. falciparum asexual blood stage activity (IC50 uM) / Cam3.II / IC50
T5 construct: Cam3.II
Description: as §1

[4] = test system: T6, Plasmodium falciparum CAM (PH0212C); assay: microbe, parasite or virus in culture; set-up: species or system P. falciparum in human erythrocytes; asexual blood-stage growth inhibition, synchronized ring-stage parasites, SYBR Green I fluorescence; conditions: Erythrocyte, 72 h, read-out: P. falciparum asexual blood stage activity (IC50 uM) / CAM (PH0212C) / IC50
T6 construct: Cam/PH0212C
Description: as §1

[5] = test system: T7, Plasmodium falciparum UG654 (UG659 in methods); assay: microbe, parasite or virus in culture; set-up: species or system P. falciparum in human erythrocytes; asexual blood-stage growth inhibition, synchronized ring-stage parasites, SYBR Green I fluorescence; conditions: Erythrocyte, 72 h, read-out: P. falciparum asexual blood stage activity (IC50 uM) / UG654 / IC50
T7 construct: UG659
Description: as §1

[6] = initial laboratory strain experiment (Table S1), read-out: P. falciparum asexual blood stage activity (IC50 uM) / Dd2
[7] = strain panel experiment (Table S2), read-out: P. falciparum asexual blood stage activity (IC50 uM) / Dd2 / IC50

## c1ccn2c(Sc3ncnc4sccc34)ncc2c1 [TCMDC-124602]
[1]
  IC50: 6590 nM
P. falciparum 3D7
  IC50: 0.502 µM
[2]
  IC50: 0.651 µM
P. falciparum Dd2; [6]
  IC50: 0.45 µM
P. falciparum Dd2; [7]
  IC50: 0.288 µM
[3]
  IC50: 0.316 µM
[4]
  IC50: 0.313 µM
[5]
  IC50: 0.354 µM

## COc1cc(-c2[nH]c(C(C)(C)CN)nc2-c2ccncc2)ccc1Br [TCMDC-140674]
P. falciparum 3D7
  IC50: 0.688 µM
[2]
  IC50: 1.85 µM
P. falciparum Dd2; [6]
  IC50: 0.244 µM
P. falciparum Dd2; [7]
  IC50: 0.341 µM
[3]
  IC50: 0.532 µM
[4]
  IC50: 0.501 µM
[5]
  IC50: 1.07 µM

## COc1ccc(-n2ncc(C(=O)N3CCC4(C3)C(=O)N(c3ccccc3)c3ccccc34)c2C)cc1 (stereo not shown) [TCMDC-134122]
P. falciparum 3D7
  IC50: 0.572 µM
[2]
  IC50: 1.67 µM
P. falciparum Dd2; [6]
  IC50: 0.216 µM
P. falciparum Dd2; [7]
  IC50: 0.394 µM
[3]
  IC50: 1.78 µM
[4]
  IC50: 1.25 µM
[5]
  IC50: 1.17 µM

## CC(C)(CN)c1cc(-c2ccc(Cl)c(O)c2)c(-c2ccncc2)o1 [TCMDC-141334]
P. falciparum 3D7
  IC50: 0.446 µM
[2]
  IC50: 0.974 µM
P. falciparum Dd2; [6]
  IC50: 0.414 µM
P. falciparum Dd2; [7]
  IC50: 0.485 µM
[3]
  IC50: 0.644 µM
[4]
  IC50: 0.676 µM
[5]
  IC50: 0.537 µM

## Cc1cccc(C)c1CNc1cccc(-c2nc(C)c(C)[nH]2)c1 [TCMDC-133434]
P. falciparum 3D7
  IC50: 0.89 µM
[2]
  IC50: 0.924 µM
P. falciparum Dd2; [6]
  IC50: 0.851 µM
P. falciparum Dd2; [7]
  IC50: 1.74 µM
[3]
  IC50: 1.21 µM
[4]
  IC50: 1.33 µM
[5]
  IC50: 1.22 µM

## Cc1cccc2[nH]c(-c3cccc(-c4cccc(NC(=O)CCc5c[nH]cn5)c4)c3)nc12 [TCMDC-132158]
P. falciparum 3D7
  IC50: 0.616 µM
[2]
  IC50: 1.72 µM
P. falciparum Dd2; [6]
  IC50: 0.609 µM
P. falciparum Dd2; [7]
  IC50: 0.932 µM
[3]
  IC50: 0.757 µM
[4]
  IC50: 0.654 µM
[5]
  IC50: 1.82 µM

## Cc1cccc2[nH]c(-c3ccc(-c4cccc(NC(=O)C(C)CN5CCN(C)CC5)c4)cc3)nc12 (stereo not shown) [TCMDC-137144]
P. falciparum 3D7
  IC50: 0.912 µM
[2]
  IC50: 1.94 µM
P. falciparum Dd2; [6]
  IC50: 1.4 µM
P. falciparum Dd2; [7]
  IC50: 1.39 µM
[3]
  IC50: 1.39 µM
[4]
  IC50: 1.2 µM
[5]
  IC50: 2.18 µM

## CCOc1ccc2nc(NC(=O)c3csnn3)sc2c1 [TCMDC-125075]
P. falciparum 3D7
  IC50: 0.144 µM
[2]
  IC50: 0.16 µM
P. falciparum Dd2; [6]
  IC50: 0.206 µM
P. falciparum Dd2; [7]
  IC50: 0.192 µM
[3]
  IC50: 0.115 µM
[4]
  IC50: 0.195 µM
[5]
  IC50: 0.178 µM

## CC(C)(C)c1cc(Cl)cc(C(=O)Nc2cc([N+](=O)[O-])ccc2Cl)c1O [TCMDC-142214]
P. falciparum 3D7
  IC50: 3.65 µM
[2]
  IC50: 3.08 µM
P. falciparum Dd2; [6]
  IC50: 3.17 µM
P. falciparum Dd2; [7]
  IC50: 2.88 µM
[3]
  IC50: 2.78 µM
[4]
  IC50: 3.8 µM
[5]
  IC50: 3.07 µM
